{"source": "paper PMC3950497", "about": "(Advances in Pharmacological Sciences, 2014)", "key": {"[1]": {"assay_type": "physicochemical", "method": "Freeze-thaw stability of stephaglabrine sulfate solution was evaluated because samples were stored at −20°C. The stability of stephaglabrine pool solutions (in water-acetonitrile 20%) at concentrations of 10 μg/mL, 50 μg/mL, and 100 μg/mL was evaluated after three cycles of overnight freezing following 3 hours of bench thaw at ambient temperature. The loss of stepharine was evaluated by comparison with freshly prepared standard solutions of the same concentrations. Loss of 10% and less was accepted."}, "[2]": {"assay_type": "in vivo, rabbit", "conditions": "for Measured mean concentration of stephaglabrin in plasma: i.m. stephaglabrine sulfate 0.1 mg/kg single dose", "method": "The selected rabbits were administrated intramuscular with stephaglabrine sulfate at doses 0.1 mg/kg as it was established before. Each animal received a single dose.\nQuantitative analysis was acquired in SRM (selected reactions monitoring) mode on Agilent 6490 triple quadrupole mass spectrometer (Agilent, USA) operated in the positive mode and equipped with Jet Stream ESI ion source. Stepharine was detected in the scheduled selected reaction monitoring (SRM) with unit resolution at both first (Q1) and third (Q3) quadrupoles. The retention time point of stepharine was determined as 9.8 with isolation width of 1 minute for the scheduled SRM method application. The optimal conditions of the analysis were achieved as follows: capillary voltage was −4500 V, nozzle voltage was set at −1200 V, flow rate of drying gas (N2) was 16 L/min, flow rate of sheath gas (N2) was 8 L/min, temperature of drying gas was set at 340°C, temperature of sheath gas was set at 290°C, and nebulizer gas was operated at 20 psi. The transitions for protonated stepharine [M+H]^+ 298.4 → 161.2, 192.1, 238.2 were selected for SRM analysis. The isolation window for the fragment ions was set at 0.27 amu, the optimum fragmentor voltage was adjusted to 310 V and collision energy −19 eV. All the samples including calibration points were analyzed in three replications. 30 μL of the samples was injected and loaded on chromatographic column. Calibration was performed on standard samples solution prepared in 20% acetonitrile with concentration of stepharine from 10^−4 μg/mL to 100 μg/mL. Chromatographic separation was performed on Thermo Hypersil-Keystone ODS column (Thermo Scientific, USA) 100 × 2.1 mm, 5 μm particle size, at flow rate of 200 μL/min and with the following elution conditions: loading onto the column at maintained 20% of mobile phase B for 3 minutes, increasing the gradient to 50% of B at 5 minutes following increasing the gradient to 100% of mobile phase B at 15 minutes. The column was washed and maintained at 100% mobile phase B from 15 to 22 minutes and the composition was decreased to 20% of solvent B at 23 minute. The column was reequilibrated at starting conditions of solvent A-solvent B system ([…], v/v) for 10 minutes at flow 200 μL/min.\n0.5 mL of blood samples from each animal was collected from ear vein in the tubes with EDTA before administration and at 15, 30, 60, 90, 120, 180, 480, 720, and 1440 minutes after drug ingestion. Blood samples were immediately put on ice and centrifuged at 5000 g for 10 minutes at 4°C within one hour after blood collection. The obtained plasma was placed in sterile tube and kept at −20°C until analysis.\nPlasma proteins were precipitated with acetonitrile. For this purpose, two volumes of acetonitrile were added to 100 μL of rabbit plasma into 1.5 mL plastic tube and 30% ammonia hydroxide was added to adjust the pH to 10. After vortex-mixing for 15 minutes at ambient temperature one volume of chloroform was added three times consequently for 2 hours and incubated at 30°C under regular stirring at 900 rpm at each occasion. The first fraction of upper organic layer was collected after 2 hours of incubation, the second and the third fractions of chloroform extract were collected after additional 30 and 60 minutes of incubation, respectively. The collected fractions were combined and transferred to a new tube and dried under vacuum at 30°C. The resulting pellet was resuspended in 100 μL of 20% water-acetonitrile solution and centrifuged at 14000 rpm for 15 minutes immediately before use. The obtained solution was used for LC-MS analysis. […]"}}, "note": "Like-named read-outs stand apart in the source and are kept apart here."}
{"compound": "COc1cc2c3c(c1OC)C1(C=CC(=O)C=C1)C[C@@H]3NCC2", "note": "[stepharine]", "values": [{"measurement": "loss during three freeze-thaw cycles", "setting": "[1]; solutions in water-acetonitrile 20% at 10, 50 and 100 μg/mL, overnight freezing, 3 hours bench thaw at ambient temperature", "result": "less than 6%"}, {"measurement": "mean sample stability", "setting": "[1]; three freeze-thaw cycles, solutions in water-acetonitrile 20%", "result": 94.6, "unit": "%"}, {"measurement": "time of maximum concentration (C max)", "setting": "[2]; all rabbits, i.m. 0.1 mg/kg stephaglabrine sulfate", "result": 90, "unit": "min"}, {"measurement": "Measured mean concentration of stephaglabrin in plasma", "setting": "[2]; rabbit ST01, 15 min after administration", "result": "8.1 ± 0.6", "unit": "ng/mL"}, {"measurement": "Measured mean concentration of stephaglabrin in plasma", "setting": "[2]; rabbit ST01, 30 min after administration", "result": "9.4 ± 0.5", "unit": "ng/mL"}, {"measurement": "Measured mean concentration of stephaglabrin in plasma", "setting": "[2]; rabbit ST01, 60 min after administration", "result": "10.0 ± 0.3", "unit": "ng/mL"}, {"measurement": "Measured mean concentration of stephaglabrin in plasma", "setting": "[2]; rabbit ST01, 90 min after administration", "result": "13.9 ± 0.9", "unit": "ng/mL"}, {"measurement": "Measured mean concentration of stephaglabrin in plasma", "setting": "[2]; rabbit ST01, 120 min after administration", "result": "5.8 ± 0.1", "unit": "ng/mL"}, {"measurement": "Measured mean concentration of stephaglabrin in plasma", "setting": "[2]; rabbit ST01, 180 min after administration", "result": "3.8 ± 0.1", "unit": "ng/mL"}, {"measurement": "Measured mean concentration of stephaglabrin in plasma", "setting": "[2]; rabbit ST01, 480 min after administration", "result": "1.8 ± 0.02", "unit": "ng/mL"}, {"measurement": "Measured mean concentration of stephaglabrin in plasma", "setting": "[2]; rabbit ST01, 720 min after administration", "result": "1.5 ± 0.02", "unit": "ng/mL"}, {"measurement": "Measured mean concentration of stephaglabrin in plasma", "setting": "[2]; rabbit ST01, 1440 min after administration", "result": 0, "unit": "ng/mL"}, {"measurement": "Measured mean concentration of stephaglabrin in plasma", "setting": "[2]; rabbit ST02, 15 min after administration", "result": "7.9 ± 0.2", "unit": "ng/mL"}, {"measurement": "Measured mean concentration of stephaglabrin in plasma", "setting": "[2]; rabbit ST02, 30 min after administration", "result": "16.5 ± 0.8", "unit": "ng/mL"}, {"measurement": "Measured mean concentration of stephaglabrin in plasma", "setting": "[2]; rabbit ST02, 60 min after administration", "result": "29.3 ± 2.2", "unit": "ng/mL"}, {"measurement": "Measured mean concentration of stephaglabrin in plasma", "setting": "[2]; rabbit ST02, 90 min after administration", "result": "33.9 ± 2.8", "unit": "ng/mL"}, {"measurement": "Measured mean concentration of stephaglabrin in plasma", "setting": "[2]; rabbit ST02, 120 min after administration", "result": "10.4 ± 0.5", "unit": "ng/mL"}, {"measurement": "Measured mean concentration of stephaglabrin in plasma", "setting": "[2]; rabbit ST02, 180 min after administration", "result": "7.8 ± 0.3", "unit": "ng/mL"}, {"measurement": "Measured mean concentration of stephaglabrin in plasma", "setting": "[2]; rabbit ST02, 480 min after administration", "result": "1.2 ± 0.02", "unit": "ng/mL"}, {"measurement": "Measured mean concentration of stephaglabrin in plasma", "setting": "[2]; rabbit ST02, 720 min after administration", "result": "1.3 ± 0.01", "unit": "ng/mL"}, {"measurement": "Measured mean concentration of stephaglabrin in plasma", "setting": "[2]; rabbit ST02, 1440 min after administration", "result": 0, "unit": "ng/mL"}, {"measurement": "Measured mean concentration of stephaglabrin in plasma", "setting": "[2]; rabbit ST03, 15 min after administration", "result": "6.8 ± 0.4", "unit": "ng/mL"}, {"measurement": "Measured mean concentration of stephaglabrin in plasma", "setting": "[2]; rabbit ST03, 30 min after administration", "result": "14.8 ± 0.2", "unit": "ng/mL"}, {"measurement": "Measured mean concentration of stephaglabrin in plasma", "setting": "[2]; rabbit ST03, 60 min after administration", "result": "19.5 ± 0.6", "unit": "ng/mL"}, {"measurement": "Measured mean concentration of stephaglabrin in plasma", "setting": "[2]; rabbit ST03, 90 min after administration", "result": "20.4 ± 1.7", "unit": "ng/mL"}, {"measurement": "Measured mean concentration of stephaglabrin in plasma", "setting": "[2]; rabbit ST03, 120 min after administration", "result": "6.5 ± 0.1", "unit": "ng/mL"}, {"measurement": "Measured mean concentration of stephaglabrin in plasma", "setting": "[2]; rabbit ST04, 15 min after administration", "result": "5.7 ± 0.2", "unit": "ng/mL"}, {"measurement": "Measured mean concentration of stephaglabrin in plasma", "setting": "[2]; rabbit ST04, 30 min after administration", "result": "7.3 ± 0.3", "unit": "ng/mL"}, {"measurement": "Measured mean concentration of stephaglabrin in plasma", "setting": "[2]; rabbit ST04, 60 min after administration", "result": "9.5 ± 0.5", "unit": "ng/mL"}, {"measurement": "Measured mean concentration of stephaglabrin in plasma", "setting": "[2]; rabbit ST04, 90 min after administration", "result": "14.2 ± 0.2", "unit": "ng/mL"}, {"measurement": "Measured mean concentration of stephaglabrin in plasma", "setting": "[2]; rabbit ST04, 120 min after administration", "result": "9.7 ± 0.2", "unit": "ng/mL"}, {"measurement": "Measured mean concentration of stephaglabrin in plasma", "setting": "[2]; rabbit ST04, 180 min after administration", "result": "2.8 ± 0.2", "unit": "ng/mL"}, {"measurement": "Measured mean concentration of stephaglabrin in plasma", "setting": "[2]; rabbit ST04, 480 min after administration", "result": "0.7 ± 0.01", "unit": "ng/mL"}, {"measurement": "Measured mean concentration of stephaglabrin in plasma", "setting": "[2]; rabbit ST04, 720 min after administration", "result": "0.6 ± 0.01", "unit": "ng/mL"}, {"measurement": "Measured mean concentration of stephaglabrin in plasma", "setting": "[2]; rabbit ST04, 1440 min after administration", "result": 0, "unit": "ng/mL"}, {"measurement": "Measured mean concentration of stephaglabrin in plasma", "setting": "[2]; rabbit ST05, 15 min after administration", "result": "6.3 ± 0.2", "unit": "ng/mL"}, {"measurement": "Measured mean concentration of stephaglabrin in plasma", "setting": "[2]; rabbit ST05, 30 min after administration", "result": "12.7 ± 0.3", "unit": "ng/mL"}, {"measurement": "Measured mean concentration of stephaglabrin in plasma", "setting": "[2]; rabbit ST05, 60 min after administration", "result": "18.5 ± 0.2", "unit": "ng/mL"}, {"measurement": "Measured mean concentration of stephaglabrin in plasma", "setting": "[2]; rabbit ST05, 90 min after administration", "result": "21.2 ± 0.2", "unit": "ng/mL"}, {"measurement": "Measured mean concentration of stephaglabrin in plasma", "setting": "[2]; rabbit ST05, 120 min after administration", "result": "5.1 ± 0.3", "unit": "ng/mL"}, {"measurement": "Measured mean concentration of stephaglabrin in plasma", "setting": "[2]; rabbit ST05, 180 min after administration", "result": "2.9 ± 0.07", "unit": "ng/mL"}, {"measurement": "Measured mean concentration of stephaglabrin in plasma", "setting": "[2]; rabbit ST05, 480 min after administration", "result": "1.4 ± 0.08", "unit": "ng/mL"}, {"measurement": "Measured mean concentration of stephaglabrin in plasma", "setting": "[2]; rabbit ST05, 720 min after administration", "result": "0.9 ± 0.04", "unit": "ng/mL"}, {"measurement": "Measured mean concentration of stephaglabrin in plasma", "setting": "[2]; rabbit ST05, 1440 min after administration", "result": 0, "unit": "ng/mL"}, {"measurement": "Measured mean concentration of stephaglabrin in plasma", "setting": "[2]; rabbit ST06, 15 min after administration", "result": "7.0 ± 0.3", "unit": "ng/mL"}, {"measurement": "Measured mean concentration of stephaglabrin in plasma", "setting": "[2]; rabbit ST06, 30 min after administration", "result": "13.9 ± 0.2", "unit": "ng/mL"}, {"measurement": "Measured mean concentration of stephaglabrin in plasma", "setting": "[2]; rabbit ST06, 60 min after administration", "result": "20.4 ± 0.2", "unit": "ng/mL"}, {"measurement": "Measured mean concentration of stephaglabrin in plasma", "setting": "[2]; rabbit ST06, 90 min after administration", "result": "25.8 ± 0.1", "unit": "ng/mL"}, {"measurement": "Measured mean concentration of stephaglabrin in plasma", "setting": "[2]; rabbit ST06, 120 min after administration", "result": "7.6 ± 0.09", "unit": "ng/mL"}, {"measurement": "Measured mean concentration of stephaglabrin in plasma", "setting": "[2]; rabbit ST06, 180 min after administration", "result": "3.3 ± 0.08", "unit": "ng/mL"}, {"measurement": "Measured mean concentration of stephaglabrin in plasma", "setting": "[2]; rabbit ST06, 480 min after administration", "result": "1.2 ± 0.08", "unit": "ng/mL"}, {"measurement": "Measured mean concentration of stephaglabrin in plasma", "setting": "[2]; rabbit ST06, 720 min after administration", "result": "0.7 ± 0.02", "unit": "ng/mL"}, {"measurement": "Measured mean concentration of stephaglabrin in plasma", "setting": "[2]; rabbit ST06, 1440 min after administration", "result": 0, "unit": "ng/mL"}, {"measurement": "presence in plasma samples after 24 hours", "setting": "[2]; rabbits, 24 hours after intramuscular administration", "result": "not found"}, {"measurement": "apparent volume of distribution", "setting": "[2]; rabbits, estimated as ratio of clearance to elimination rate constant, data not shown", "result": "extensively distributed throughout the body"}]}
